In brackets after ≈: the same amount, converted by molar mass. Read-outs that look alike come from different tables or passages of the source. Marks after values point to notes of the source that are not given here. Values belong to the compound of their own block, whether it stands above or below them.
Experiments:
[1] = Aqueous solubility at pH 2 and pH 7; format: physicochemical
BTK = BTK (Homo sapiens, UniProt Q06187); assay: BTK covalent inhibition kinetics (KI, kinact, kinact/KI); format: biochemical; details: for Ki / kinact: average of 2 independent determinations (± SD); for kinact/KI: read-out: kinact/KI
Experimental: The development of the structure-activity relationship was conducted by characterizing the non-covalent affinity of each inhibitor for BTK (KI) and the first order rate constant for irreversible covalent bond formation (kinact). The second order rate constant kinact/KI ratio is used to assess the covalent inhibitor potency because it is independent of incubation time and substrate concentrations (Copeland, R. A. Evaluation of Enzyme Inhibitors in Drug Discovery: a Guide for Medicinal Chemists and Pharmacologists; 2nd ed.; Wiley: Hoboken, N.J., 2013).

[2] = Human liver microsomes T1/2; format: in vitro ADME; details: for half-life: human, liver microsomes, Table 4
[3] = Solubility of P and M forms in solvent systems and their water mixtures; format: physicochemical
Source text: Moreover, this solubility difference can be tuned by changing the ratio between 1-propanol/water. Therefore, M form can be efficiently converted even starting from a 1:1 d.r. mixture.

[4] = aqueous medium, aqueous buffer, Table 4, pH 7, read-out: Solubility pH 7
[5] = aqueous medium, simulated gastric fluid, Table 4, pH 2, read-out: Solubility pH 2

BTK, sequence (Q06187 whole entry): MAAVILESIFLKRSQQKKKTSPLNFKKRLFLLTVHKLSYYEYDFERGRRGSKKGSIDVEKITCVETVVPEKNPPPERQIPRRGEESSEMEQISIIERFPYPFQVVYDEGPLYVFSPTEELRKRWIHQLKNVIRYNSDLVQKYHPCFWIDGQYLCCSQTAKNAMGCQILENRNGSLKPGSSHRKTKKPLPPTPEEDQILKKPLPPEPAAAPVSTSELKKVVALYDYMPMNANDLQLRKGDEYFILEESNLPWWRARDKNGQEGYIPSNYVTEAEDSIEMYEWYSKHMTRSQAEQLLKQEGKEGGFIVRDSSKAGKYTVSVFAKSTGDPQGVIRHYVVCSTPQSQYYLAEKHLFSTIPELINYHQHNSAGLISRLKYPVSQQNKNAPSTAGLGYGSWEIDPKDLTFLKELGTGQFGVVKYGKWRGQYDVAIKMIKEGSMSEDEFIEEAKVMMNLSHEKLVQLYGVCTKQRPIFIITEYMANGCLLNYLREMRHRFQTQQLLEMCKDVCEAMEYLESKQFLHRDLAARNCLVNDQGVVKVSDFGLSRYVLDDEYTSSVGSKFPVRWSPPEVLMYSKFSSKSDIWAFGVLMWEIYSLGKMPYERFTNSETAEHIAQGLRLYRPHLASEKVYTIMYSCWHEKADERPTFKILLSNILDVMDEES

SMILES: C=CC(=O)N1CCCC(NC(=O)c2sc3nccc4c3c2NC(=O)N4c2ccc(Oc3ccccc3)nc2)C1 (centres unmarked) [D]
Solubility [1, 4]: 4 µM (≈ 2.16 µg/mL)
Solubility [1, 5]: 18 µM (≈ 9.73 µg/mL)
Ki (BTK; Table 4): 354 ± 29 nM
kinact (BTK; Table 4): 0.000278 s⁻¹
kinact/KI (BTK; Table 4): 786 ± 63 M⁻¹ s⁻¹
half-life [2]: 6 min

SMILES: C=CC(=O)N1CCCC(NC(=O)c2sc3nccc4c3c2NC(=O)N4c2cnc(Oc3ccccc3)cc2C)C1 (centres unmarked) [Compound F]
Solubility [1, 4]: 7 µM (≈ 3.88 µg/mL)
Solubility [1, 5]: 15 µM (≈ 8.32 µg/mL)
Ki (BTK; Table 4): 27.6 nM
kinact (BTK; Table 4): 0.000352 s⁻¹
kinact/KI (BTK; Table 4): 13000 ± 1700 M⁻¹ s⁻¹
half-life [2]: 5 min

SMILES: C=CC(=O)N[C@H]1CCC[C@H]1NC(=O)c1sc2nccc3c2c1NC(=O)N3c1cnc(CC(C)C)cc1C (single isomer, unassigned) [P form]
Solubility ([3]; 1-Butanol/water (~6/94 w/w %), 10° C.): 0.01 mg/mL (≈ 0.0193 mM)
Solubility ([3]; 1-Butanol/water (~6/94 w/w %), 25° C.): 0.01 mg/mL (≈ 0.0193 mM)
Solubility ([3]; 1-Butanol/water (~6/94 w/w %), 50° C.): immiscible
Solubility ([3]; 1-Butanol/water (~80/20 w/w %), 10° C.): 18.2 mg/mL (≈ 35.1 mM)
Solubility ([3]; 1-Butanol/water (~80/20 w/w %), 25° C.): 20.7 mg/mL (≈ 39.9 mM)
Solubility ([3]; 1-Butanol/water (~80/20 w/w %), 50° C.): immiscible
Solubility ([3]; 1-Butanol, 10° C.): 137.3 mg/mL (≈ 265 mM)
Solubility ([3]; 1-Butanol, 25° C.): 132.8 mg/mL (≈ 256 mM)
Solubility ([3]; 1-Butanol, 50° C.): 197.6 mg/mL (≈ 381 mM)
Solubility ([3]; 1-Propanol/water (20/80 w/w %), 25° C.): 0.4 mg/mL (≈ 0.771 mM)
Solubility ([3]; 1-Propanol/water (20/80 w/w %), 50° C.): 0.5 mg/mL (≈ 0.964 mM)
Solubility ([3]; 1-Propanol/water (33/67 w/w %), 10 °C, aqueous with cosolvent or surfactant or cyclodextrin, thermodynamic from solid, 1-Propanol/water (33/67 w/w %), 10° C., read-out: Solubility): 2.2 mg/mL (≈ 4.24 mM)
Solubility ([3]; 1-Propanol/water (33/67 w/w %), 25° C.): 1.9 mg/mL (≈ 3.66 mM)
Solubility ([3]; 1-Propanol/water (33/67 w/w %), 50° C.): 1.8 mg/mL (≈ 3.47 mM)
Solubility ([3]; 1-Propanol/water (50/50 w/w %), 25° C.): 8.5 mg/mL (≈ 16.4 mM)
Solubility ([3]; 1-Propanol/water (50/50 w/w %), 50° C.): 15.6* mg/mL
Solubility ([3]; 1-Propanol/water (67/33 w/w %), 10° C.): 18.0 mg/mL (≈ 34.7 mM)
Solubility ([3]; 1-Propanol/water (67/33 w/w %), 25° C.): 20.8 mg/mL (≈ 40.1 mM)
Solubility ([3]; 1-Propanol/water (67/33 w/w %), 50° C.): 20.3* mg/mL
Solubility ([3]; 1-Propanol/water (80/20 w/w %), 10° C.): 24.8 mg/mL (≈ 47.8 mM)
Solubility ([3]; 1-Propanol/water (80/20 w/w %), 25° C.): 26.3 mg/mL (≈ 50.7 mM)
Solubility ([3]; 1-Propanol/water (80/20 w/w %), 50° C.): 32.3* mg/mL
Solubility ([3]; 1-Propanol, 10° C.): 206.8 mg/mL (≈ 399 mM)
Solubility ([3]; 1-propanol, 25 °C, organic solvent or mixture, 1-Propanol, 25° C., read-out: Solubility): 197 mg/mL (≈ 380 mM)
Solubility ([3]; 1-propanol, 50 °C, organic solvent or mixture, 1-Propanol, 50° C., read-out: Solubility): 255 mg/mL (≈ 492 mM)
Solubility ([3]; 1-propanol/water (50/50 w/w %), 10 °C, aqueous with cosolvent or surfactant or cyclodextrin, thermodynamic from solid, 1-Propanol/water (50/50 w/w %), 10° C., read-out: Solubility): 8.1 mg/mL (≈ 15.6 mM)
Solubility ([3]; 2-butanol/water (~17/83 w/w %), 50 °C, aqueous with cosolvent or surfactant or cyclodextrin, 2-butanol/water (~17/83 w/w %), 50° C., read-out: Solubility): 0.2 mg/mL (≈ 0.386 mM)
Solubility ([3]; 2-butanol/water (~17/83 w/w %), 10° C.): 0.5 mg/mL (≈ 0.964 mM)
Solubility ([3]; 2-butanol/water (~17/83 w/w %), 25° C.): 0.3 mg/mL (≈ 0.578 mM)
Solubility ([3]; Isobutanol, 10° C.): 105.8 mg/mL (≈ 204 mM)
Solubility ([3]; Isobutanol, 25° C.): 102.2 mg/mL (≈ 197 mM)
Solubility ([3]; Isobutanol, 50° C.): 134.3 mg/mL (≈ 259 mM)
Solubility ([3]; Isopropanol/water (~16/84 w/w %), 10° C.): 0.1 mg/mL (≈ 0.193 mM)
Solubility ([3]; Isopropanol/water (~16/84 w/w %), 25° C.): 0.2 mg/mL (≈ 0.386 mM)
Solubility ([3]; Isopropanol/water (~16/84 w/w %), 50° C.): 0.3 mg/mL (≈ 0.578 mM)
Solubility ([3]; Isopropanol/water (~28/72 w/w %), 10° C.): 0.4 mg/mL (≈ 0.771 mM)
Solubility ([3]; Isopropanol/water (~28/72 w/w %), 25° C.): 0.7 mg/mL (≈ 1.35 mM)
Solubility ([3]; Isopropanol/water (~28/72 w/w %), 50° C.): 1.1 mg/mL (≈ 2.12 mM)
Solubility ([3]; Isopropanol/water (~44/56 w/w %), 10° C.): 2.0 mg/mL (≈ 3.86 mM)
Solubility ([3]; Isopropanol/water (~44/56 w/w %), 25° C.): 3.0 mg/mL (≈ 5.78 mM)
Solubility ([3]; Isopropanol/water (~44/56 w/w %), 50° C.): 2.0 mg/mL (≈ 3.86 mM)
Solubility ([3]; Isopropanol/water (~61/39 w/w %), 10° C.): 4.0 mg/mL (≈ 7.71 mM)
Solubility ([3]; Isopropanol/water (~61/39 w/w %), 25° C.): 6.0 mg/mL (≈ 11.6 mM)
Solubility ([3]; Isopropanol/water (~61/39 w/w %), 50° C.): 4.0 mg/mL (≈ 7.71 mM)
Solubility ([3]; Propylene carbonate/water (93/7 w/w %), 10° C.): 10.9 mg/mL (≈ 21 mM)
Solubility ([3]; Propylene carbonate/water (93/7 w/w %), 25° C.): 9.0 mg/mL (≈ 17.4 mM)
Solubility ([3]; Propylene carbonate/water (93/7 w/w %), 50° C.): 8.6 mg/mL (≈ 16.6 mM)
Solubility ([3]; Propylene carbonate, 10° C.): 55.8 mg/mL (≈ 108 mM)
Solubility ([3]; isobutanol/water (~8/92 w/w %), 10 °C, aqueous with cosolvent or surfactant or cyclodextrin, Isobutanol/water (~8/92 w/w %), 10° C., read-out: Solubility): 0.1 mg/mL (≈ 0.193 mM)
Solubility ([3]; isobutanol/water (~8/92 w/w %), 25 °C, aqueous with cosolvent or surfactant or cyclodextrin, Isobutanol/water (~8/92 w/w %), 25° C., read-out: Solubility): 0.1 mg/mL (≈ 0.193 mM)
Solubility ([3]; isobutanol/water (~8/92 w/w %), 50 °C, aqueous with cosolvent or surfactant or cyclodextrin, Isobutanol/water (~8/92 w/w %), 50° C., read-out: Solubility): 0.1 mg/mL (≈ 0.193 mM)
Solubility ([3]; propylene carbonate, 25 °C, organic solvent or mixture, Propylene carbonate, 25° C., read-out: Solubility): 50.1 mg/mL (≈ 96.6 mM)
Solubility ([3]; propylene carbonate, 50 °C, organic solvent or mixture, Propylene carbonate, 50° C., read-out: Solubility): 97.3 mg/mL (≈ 188 mM)

Other lines, results leading:

Solubility [1, 4]: 9 µM (≈ 4.99 µg/mL)
Solubility [1, 5]: 16 µM (≈ 8.87 µg/mL)
Ki (BTK; Table 4): 69.9 ± 0.2 nM
kinact (BTK; Table 4): 0.000333 s⁻¹
kinact/KI (BTK; Table 4): 4770 ± 7450 M⁻¹ s⁻¹
half-life [2]: 4 min
SMILES: C=CC(=O)N1CCCC(NC(=O)c2sc3nccc4c3c2NC(=O)N4c2ncc(Oc3ccccc3)cc2C)C1 (centres unmarked) [E]

Solubility ([1]; Table 5, pH 7, read-out: Solubility pH 7): 220 µM (≈ 105 µg/mL)
Solubility ([1]; aqueous medium, simulated gastric fluid, Table 5, pH 2, read-out: Solubility pH 2): > 400 µM
Ki (BTK; Table 5): 2430 nM
kinact (BTK; Table 5): 0.000317 s⁻¹
kinact/KI (BTK; Table 5): 131 ± 2 M⁻¹ s⁻¹
Human liver microsomes T1/2 ([2]; Table 5): 27 min
SMILES: C=CC(=O)NCCNC(=O)c1sc2nccc3c2c1NC(=O)N3c1cnc(CC(C)C)cc1C [L]
